From patent US9587220B2, “Method for inducing cardiac differentiation of pluripotent stem cell” (Kyoto University, priority 2012, dated 2017) come the findings set out here.

A value given as a limit tells only on which side of the number the result lay.

Experiment [1] concerns WNT target genes in IMR90-1 hiPSCs. In words: Microarray and qPCR gene expression of WNT target genes. Format: cell-based, human. The note with it: for expression levels of WNT target genes by qPCR: 12, 24 and 72 h after treatment. As to the method:
IMR90-1 iPSCs were cultured in cardiac differentiation medium containing serum. On Day 3, cells were treated with 10 μM KY02111 or 0.1% DMSO for 0, 12, or 24 h. Non-treated cells (0 h), cells treated with KY02111 for 12 h (KY12hr) or 24 h (KY24hr), and cells treated with 0.1% DMSO for 12 h (DMSO12hr) or 24 h (DMSO24hr) were used for microarray analysis. Total RNA was prepared using the RNeasy Mini Kit (Qiagen), according to the manufacturer's instructions. Synthesis of cDNA, in vitro transcription and biotin labeling cRNA, and hybridization to the Human Gene 1.0 ST array (Affymetrix) were performed according to Affymetrix protocols. Hybridized arrays were scanned using an Affymetrix GeneChip Scanner. Data normalization and further analysis were performed with GeneSpring GX (Agilent Technologies). Proportions of treated cells expressing genes relative to control (KY02111/DMSO) were calculated for each time point. […] The microarray data have been submitted to the Gene Expression Omnibus (GEO) public database at NCBI (GEO accession number, GSE33622).
Total RNA was isolated with an RNeasy Mini Kit (QIAGEN). Genomic DNA was completely digested with DNase I (Invitrogen). Total RNA (0.5 μg) was subjected to cDNA synthesis using the SuperScript III Reverse Transcriptase (Invitrogen). qRT-PCR was performed in triplicate, using SYBER GREEN PCR Master Mix on a 7500 Real Time PCR System (Applied Biosystems). The cycling conditions were as follows: 10 min at 95° C.; 40 cycles, each consisting of 15 s at 95° C.; 1 min at 60° C. Total RNA from human adult heart tissue (BioChain) was used to evaluate the expression levels of cardiac marker genes for cardiomyocytes derived from hPSCs. All values were normalized with respect to GAPDH expression level and expressed relative to the corresponding values in human adult hearts (100%).

The next experiment deals with IMR90-1 hiPSCs. In words: Beating colonies of hiPSCs (IMR90-1) in serum-containing cardiac differentiation. The format is cell-based, human. The note with it: for proportions of beating colonies: hiPSCs; for proportions of beating colonies with BIO: with 5 μM BIO (GSK3β inhibitor). Here is the method: Confluent hESCs and hiPSCs were gently detached with CTK solution and transferred into Petri dishes (BD Biosciences) with Primate ES Cell Culture Medium (ReproCELL, Japan). Cells were held in suspension culture for 8-24 h to form aggregates. The sizes of hPSC aggregates (0.3-1 mm in diameter) are important for efficient differentiation. Following suspension culture, cell aggregates were attached to culture dishes (3-10×10^5 cells cm^−2) in cardiac differentiation medium: IMDM (Sigma), containing 20% FBS (Gibco), 1% MEM non-essential amino acid solution (Sigma), 1% Penicillin-Streptomycin (Gibco), 2 mM L-glutamine (Sigma), 0.001% 2-Mercaptoethanol (Gibco), and 0.005N NaOH, with 10 ng ml^−1 BMP4 (R&D Systems). The medium was changed to cardiac differentiation medium with 10 μM KY02111 and/or other WNT inhibitors added on Day 3 (hiPSC lines) or Day 4 (human or monkey ESC lines); XAV939 (Wako, Japan), IWP-2 (Santa Cruz Biotechnology), IWR-1 (Merck4Bioscience), IGFBP4 (R&D Systems), Dkk1 (R&D Systems) and the mixture of bFGF (R&D Systems), BMP4 (R&D Systems), VEGF (R&D Systems), DKK1 (R&D Systems), and Activin A (R&D Systems) (Non-patent literature 16). Medium was changed every 2-3 d. KY02111 and other WNT inhibitors were added until Day 9 for hiPSC lines and the monkey ESC line, or Day 14 for hESC lines. On Day 15, cardiac cell colonies on dishes were incubated with protease solution (0.1% collagenase type I, 0.25% trypsin, 1 U ml^−1 DNase I, 116 mM NaCl, 20 mM HEPES, 12.5 mM NaH2PO4, 5.6 mM glucose, 5.4 mM KCl, and 0.8 mM MgSO4, pH 7.35) for 0.5-2 h, until all cardiac colonies were detached from the bottom of the wells. The detached cardiac colonies were transferred into 15 ml tubes with fresh cardiac differentiation medium and precipitated by gravity, and the supernatant was removed by aspiration. The cardiac colonies were then transferred into Ultra-low culture dishes (Corning, 3261) or 6-well plates (Corning, YO-01835-24) in cardiac differentiation medium without both serum and NaOH. The floating cardiac colonies were maintained for more than 1 month, and the media were changed every 5 d. A differentiation method of mouse ESC (R1 line) was carried out as previously described^46, and KY02111 was added during Days 3-6. Beating colonies were counted on Day 9.

As for `Oc1nc(-c2ccc(C(F)(F)F)cc2)nc2c1CSCC2` [XAV939, reference compound], the “expression levels of WNT target genes by qPCR” value (shortened to “expression levels”) in experiment [1] is recorded as “suppressed”. In addition, in the experiment with IMR90-1 hiPSCs (FIG. 3d), the “proportions of beating colonies” value turned out to be 7.5% and the “proportions of beating colonies with BIO” value is “completely inhibit”.

Take `Cc1ccc2nc(NC(=O)CSc3nc4c(c(=O)n3-c3ccccc3)SCC4)sc2c1` [IWP-2, reference compound]: the “expression levels” value in experiment [1] is “suppressed”. Also, in the experiment on IMR90-1 hiPSCs (FIG. 3d), the “proportions of beating colonies” value was 37% and the “proportions of beating colonies with BIO” value was “completely inhibit”.

For `COc1ccc(CCC(=O)Nc2nc3ccc(Cl)cc3s2)cc1OC` [KY02111, 2-(3-(3,4-dimethoxyphenyl)propanamide)-6-chlorobenzothiazole], the “number of genes changed >25% at both 12 and 24 h (microarray)” value in experiment [1] (10 μM, versus DMSO) came out at 26 genes. Also, the “expression levels” value in experiment [1] is on record as “suppressed”. Further, in the experiment with IMR90-1 hiPSCs (FIG. 3d), the “promotion of cardiac differentiation of hiPSCs compared with other WNT inhibitors” value is “most effective”, the “proportions of beating colonies” value came out at 87% and the “proportions of beating colonies with BIO” value was “did not cancel”. In the experiment with IMR90-1 hiPSCs (floating culture of beating colonies, FIG. 6), the “proportion of beating colonies after subculture” value is recorded as “up to 90%”. In the experiment with IMR90-1 hiPSCs (time course, FIG. 6), the “day on which beating colonies emerged” value turned out to be 10 days and the “day until which cardiac colonies continued beating” value was not below 50 days.
